Measurements published in article PMC6934184, “Selective DNA-PKcs inhibition extends the therapeutic index of localized radiotherapy and chemotherapy” (The Journal of Clinical Investigation, 2019).

Molecular target: T1, NUAK2 (Homo sapiens, UniProt Q9H093)
T1 construct: purchased Thermo Fisher Scientific (Life Technologies) SelectScreen
Assay: SelectScreen LanthaScreen
Assay type: binding
Settings: 1 µM
Experimental: The in vitro kinase selectivity of NU5455 was determined using the SelectScreen Broad Assay Panel (Thermo Fisher Scientific) involving activity and binding assays (Supplemental Table 1). […] Class IA PI3Ks were measured using the p85α subunit.
Kinase [ATP] % Assay Kinase [ATP] % Assay Kinase [ATP] % Assay Kinase [ATP] % Assay […]
NEK2 Km app 17.8 Z CSNK1G3 (CK1 gamma 3) Km app 4.2 Z NUAK2 n/a 1.0 L KIT T670E n/a -2.8 L […]
SGK (SGK1) Km app 8.5 Z MAP4K2 (GCK) Km app 2.7 Z TLK2 n/a -0.3 L STK38 (NDR) n/a -5.9 L
MERTK (cMER) Km app 8.3 Z CDK2/cyclin A Km app 2.7 Z TGFBR1 (ALK5) n/a -0.4 L MATK (HYL) Km app -6.3 Z
FYN Km app 8.3 Z EPHA1 Km app 2.7 Z CLK3 Km app -0.5 Z ABL1 E255K Km app -6.6 Z
TEC n/a 8.1 L CDK2/cyclin E1 n/a 2.7 L MAP3K14 (NIK) n/a -0.5 L STK17A (DRAK1) n/a -6.6 L
KIT V654A n/a 8.1 L TESK2 n/a 2.7 L AKT3 (PKB gamma) Km app -0.5 Z JAK2 JH1 JH2 Km app -6.7 Z
ROS1 Km app 8.0 Z SPHK1 Km app 2.7 A MAP3K9 (MLK1) Km app -0.5 Z PRKACB (PRKAC beta) n/a -6.8 L
FGFR3 K650E Km app 7.9 Z AMPK A2/B1/G1 Km app 2.6 Z IKBKB (IKK beta) Km app -0.6 Z PDGFRA (PDGFR alpha) Km app -6.8 Z
RAF1 (cRAF) Y340D Y341D 100 7.9 Z DYRK3 Km app 2.6 Z CAMK2A (CaMKII alpha) Km app -0.6 Z NEK9 Km app -7.2 Z
PI4KA (PI4K alpha) 10 7.8 A CSNK1D (CK1 delta) Km app 2.6 Z PRKCB1 (PKC beta I) Km app -0.7 Z PDK1 Km app -7.3 Z
HIPK2 Km app 7.8 Z ACVR2A n/a 2.5 L TTK n/a -0.7 L RPS6KB1 (p70S6K) Km app -7.8 Z […]

T1 sequence (Q9H093 whole entry): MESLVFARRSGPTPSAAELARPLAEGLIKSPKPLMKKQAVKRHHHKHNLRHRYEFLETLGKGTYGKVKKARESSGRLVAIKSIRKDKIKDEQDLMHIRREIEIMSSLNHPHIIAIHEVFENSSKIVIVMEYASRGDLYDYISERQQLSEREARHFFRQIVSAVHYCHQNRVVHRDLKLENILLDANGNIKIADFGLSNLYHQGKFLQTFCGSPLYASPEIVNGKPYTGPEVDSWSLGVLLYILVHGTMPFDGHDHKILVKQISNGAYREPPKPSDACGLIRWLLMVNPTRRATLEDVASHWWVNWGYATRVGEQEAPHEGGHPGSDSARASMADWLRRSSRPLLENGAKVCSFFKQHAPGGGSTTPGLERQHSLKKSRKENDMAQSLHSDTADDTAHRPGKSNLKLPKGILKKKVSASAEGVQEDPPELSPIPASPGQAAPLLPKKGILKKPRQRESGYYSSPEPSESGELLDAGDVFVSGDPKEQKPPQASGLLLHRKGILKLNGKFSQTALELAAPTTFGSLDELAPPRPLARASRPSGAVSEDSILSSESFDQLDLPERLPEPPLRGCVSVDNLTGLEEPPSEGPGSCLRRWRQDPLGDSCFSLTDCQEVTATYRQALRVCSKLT

Structure (SMILES): CN(C(=O)CN1CCOCC1)c1ccc2sc3c(-c4cccc5c(=O)cc(N6CC7CCC(C6)O7)oc45)cccc3c2c1 [NU5455]
- % displacement: 1.0%
